The test system of series [1] is glycerol-3-phosphate-dependent respiration in the mitochondrial specimen of Trypanosoma brucei brucei. As to the kind of experiment: Inhibition of glycerol-3-phosphate-dependent respiration in mitochondrial specimen. In kind it is biochemical. The settings on record: mitochondrial specimen from T. brucei brucei multiplied in rat bloodstream. From the text: The inhibition effect of the novel halogen-containing phenol derivatives having an alkyl side chain on the glycerol-3-phosphate-dependent respiration in the mitochondrial specimen prepared by mechanically crushing the bodies of Trypanosoma brucei brucei multiplied in the rat bloodstream with glass beads and subjecting the crushed bodies to centrifugal fractionation was examined.

Series [2] has as its target cyanide resistant quinol enzyme of Trypanosoma (Trypanosoma brucei brucei, UniProt Q26710). The series can be described thus: Respiration inhibition on the cyanide resistant quinol enzyme of Trypanosoma (recombinant enzyme). In kind it is biochemical. From the text:
Antitrypanosoma Action (IC50)
The respiration inhibition effect of the novel phenol derivatives on the cyanide resistant quinol enzyme of Trypanosoma was examined with the use of a recombinant enzyme.

A further series relates to Trypanosma brucei brucei. The series can be described thus: Antitrypanosoma action in 24 h culture, minimum effective concentration, with or without glycerin. Format: cell-based, Trypanosoma brucei brucei. The settings on record: for Minimum Effective Concentration, Presence of Glycerin: 5 mM of glycerin; for minimal effective concentration: Trypanosoma brucei, read-out: Minimum Effective Concentration, Absence of Glycerin. As to the method:
With the use of a 96-well culture plate, each agent was adjusted to 10 mM with DMSO, and 5×10^5/ml of Trypanosma brucei brucei was added and cultured at 37° C. for 24 hours, and the minimum effective concentration was calculated.
The above described culture was conducted with the addition of 5 mM of glycerin under the same conditions as described above and observed.

Series [3] has as its system glycerol-3-phosphate-dependent respiration in the mitochondrial specimen of Trypanosoma brucei brucei. The note with it: earlier filing JP H09-165332; cited from earlier work.
Where [4] appears, read: 5×10^5/ml, 37° C., 24 hours, no glycerin.

The values below come from patent US7622598B2, “Phenol derivatives and antitrypanosoma preventive/therapeutic agent comprising the same as active ingredient” (aRigen Pharmaceuticals, Inc., priority 2003, dated 2009).

SMILES strings stand for the structures. Read-outs that look alike come from different tables or passages of the source.

What is called IC50 is the concentration that gives 50% inhibition. In general, melting point refers to the temperature of the solid-liquid transition.

Sequence of cyanide resistant quinol enzyme of Trypanosoma (Q26710 whole entry): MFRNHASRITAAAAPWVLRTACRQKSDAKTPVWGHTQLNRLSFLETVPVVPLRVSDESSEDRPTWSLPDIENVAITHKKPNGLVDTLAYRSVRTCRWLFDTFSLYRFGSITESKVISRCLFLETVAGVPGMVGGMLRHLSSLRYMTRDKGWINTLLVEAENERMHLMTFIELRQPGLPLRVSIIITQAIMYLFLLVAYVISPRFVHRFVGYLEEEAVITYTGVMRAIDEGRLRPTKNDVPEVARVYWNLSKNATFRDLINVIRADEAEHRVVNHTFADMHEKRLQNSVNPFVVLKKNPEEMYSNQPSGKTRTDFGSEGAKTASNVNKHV

For the compound `C/C=C(C)/C=C/C=C/[C@H](OC)[C@@H](C)[C@@H](OC)[C@@H](C)CCc1oc2c(O)c(OC)cc(OC)c2c(=O)c1C` [stigmatellin], in series [1], the “absolute amounts of 50% inhibition” value was 18,600 pmol/mg protein.

As to `CCCCCCCC/C=C/c1c(O)ccc(C=O)c1O` [compound 197, 3-(1-Decenyl)-2,4-dihydroxybenzaldehyde], in series [2], the IC50 is 120 nM. Besides, the “Minimum Effective Concentration, Presence of Glycerin” value (“Minimum Effective Concentration” below) in the series with Trypanosma brucei brucei (5×10^5/ml, 37° C., 24 hours) was found to be 50 µM. Also, the minimal effective concentration in the series with Trypanosma brucei brucei (setting [4]) was found to be 50 µM.

In the case of `Cc1c(Cl)c(O)c(/C=C/C(C)CCCC(C)C)c(O)c1C=O` (racemic) [dl-223, 3-Chloro-5-(3,7-dimethyl-1-octenyl)-4,6-dihydroxy-2-methylbenzaldehyde], in series [2], the IC50 is 1.1 nM.

Consider `CCCCCCCCCC(O)c1c(O)c(Cl)c(C)c(C=O)c1O` (centres unmarked) [196-10, 5-Chloro-2,4-dihydroxy-3-(1-hydroxydecyl)-6-methylbenzaldehyde], for which, in series [2], the IC50 amounted to 0.6 nM. Moreover, the “Minimum Effective Concentration” value with Trypanosma brucei brucei (5×10^5/ml, 37° C., 24 hours) was found to be 0.8 µM. Also, the minimal effective concentration in the series with Trypanosma brucei brucei (setting [4]) was 100 µM.

With `COc1c(Cl)c(C)c(C=O)c(O)c1C/C=C(\C)CC/C=C(\C)[C@@H]1CC(=O)C(C)(C)O1` [compound 211, 3-Chloro-6-hydroxy-4-methoxy-2-methyl-5-[(E,E)-3-methyl-7-(tetrahydro-5,5-dimethyl-4-oxo-2-furanyl)-2,6-octadienyl]benzaldehyde], in series [2], the half-maximal inhibitory concentration (IC50) was 4 nM.

Take `CCCCCCCCCc1c(O)c(Cl)c(C)c(C=O)c1O` [215-9, 3-Chloro-4,6-dihydroxy-2-methyl-5-nonylbenzaldehyde]: the melting point lay within 89 to 90 °C. Further, the 50% inhibitory concentration (IC50) in series [2] was 0.21 nM.

With `CCCCCCCC/C=C/c1c(O)c(Cl)c(C)c(C=O)c1O` [200-10, 5-Chloro-3-(1-decenyl)-2,4-dihydroxy-6-methylbenzaldehyde], the melting point is 83 to 84 °C. The IC50 in series [2] is 0.45 nM. Besides, the “Minimum Effective Concentration” value with Trypanosma brucei brucei (5×10^5/ml, 37° C., 24 hours) came to 0.8 µM. The minimal effective concentration with Trypanosma brucei brucei (setting [4]) turned out to be 100 µM.

With `CCCCCCCCCC/C=C/c1c(O)c(Cl)c(C)c(C=O)c1O` [200-12, 5-Chloro-3-(1-dodecenyl)-2,4-dihydroxy-6-methylbenzaldehyde], in series [2], the IC50 came out at 0.5 nM. Besides, in the series on Trypanosma brucei brucei (5×10^5/ml, 37° C., 24 hours), the “Minimum Effective Concentration” value was determined as 1.5 µM. For the same compound, the minimal effective concentration with Trypanosma brucei brucei (setting [4]) was 100 µM.

`C/C(=C\Cc1c(O)c(Cl)c(C)c(C=O)c1O)CC/C=C(\C)[C@@H]1CC(=O)C(C)(C)O1` [AF, ascofuranone, reference compound]: the “inhibition of the glycerol-3-phosphate oxidation system of trypanosome” value in series [3] is recorded as “very low concentration of the order of nM”. Besides, in the series with Trypanosma brucei brucei (5×10^5/ml, 37° C., 24 hours), the “Minimum Effective Concentration” value was 0.2 µM. In the series with Trypanosma brucei brucei (24 h), the minimal effective concentration amounted to 200 µM.

On to `CCCCCCCCC(O)c1c(O)cc(C)c(C=O)c1O` (centres unmarked) [195-9, 2,4-Dihydroxy-3-(1-hydroxynonyl)-6-methylbenzaldehyde], for which the IC50 in series [2] amounted to 30 nM. Further, the “Minimum Effective Concentration” value in the series on Trypanosma brucei brucei (5×10^5/ml, 37° C., 24 hours) came out at 25 µM. Also, in the series with Trypanosma brucei brucei (setting [4]), the minimal effective concentration stood at 25 µM.

With `CCCCCCCCCC/C=C/c1c(O)cc(C)c(C=O)c1O` [compound 198, 3-(1-Dodecenyl)-2,4-dihydroxy-6-methylbenzaldehyde], the melting point was in the range of 103 to 105 °C. Besides, in series [2], the IC50 was found to be 16 nM. In addition, the “Minimum Effective Concentration” value in the series on Trypanosma brucei brucei (5×10^5/ml, 37° C., 24 hours) is 50 µM. Further, in the series with Trypanosma brucei brucei (setting [4]), the minimal effective concentration is 50 µM.

`CCCCCCCCCCCC(O)c1c(O)c(Cl)c(C)c(C=O)c1O` (centres unmarked) [196-12, 5-Chloro-2,4-dihydroxy-3-(1-hydroxydodecyl)-6-methylbenzaldehyde]: in series [2], the IC50 turned out to be 0.65 nM. For the same compound, the “Minimum Effective Concentration” value in the series on Trypanosma brucei brucei (5×10^5/ml, 37° C., 24 hours) was determined as 1.5 µM. The minimal effective concentration with Trypanosma brucei brucei (setting [4]) was 100 µM.

`CCCCCCC/C=C/c1c(O)c(Cl)c(C)c(C=O)c1O` [200-9, 5-chloro-2,4-dihydroxy-6-methyl-3-(1-nonenyl)benzaldehyde] yielded a melting point of 79.5 to 80.5 °C. Further, the IC50 in series [2] is 0.4 nM. Moreover, the “Minimum Effective Concentration” value with Trypanosma brucei brucei (5×10^5/ml, 37° C., 24 hours) came to 0.8 µM. Further, in the series with Trypanosma brucei brucei (setting [4]), the minimal effective concentration stood at 100 µM.

In turn, `CCCCC/C=C/c1c(O)c(Cl)c(C)c(C=O)c1O` [200-7, 5-Chloro-3-(1-heptenyl)-2,4-dihydroxy-6-methylbenzaldehyde] had a melting point of 96 to 97 °C.

Take `CC(C)=CCCC(C)CC(O)c1c(O)c(Cl)c(C)c(C=O)c1O` (centres unmarked) [compound 220, 3-chloro-4,6-dihydroxy-5-(1-hydroxy-3,7-dimethyl-6-octenyl)-2-methylbenzaldehyde]: the IC50 in series [2] amounted to 20 nM.

`Cc1c(Cl)c(O)c(CCC(C)CCCC(C)[C@@H]2CC(=O)C(C)(C)O2)c(O)c1C=O` (mixture of isomers) [compound 212, 3-Chloro-4,6-dihydroxy-2-methyl-5-[3-methyl-7-(tetrahydro-5,5-dimethyl-4-oxo-2-furanyl)octyl]-benzaldehyde]: the IC50 in series [2] amounted to 0.3 nM.

As for `CCCCCCCCCCCC(O)c1c(O)c(Cl)cc(C(=O)OC)c1O` (centres unmarked), the melting point was 96 to 97 °C.

Consider `CCCCCCCCCCCC(O)c1c(O)cc(C)c(C=O)c1O` (centres unmarked) [195-12, 2,4-Dihydroxy-3-(1-hydroxydodecyl)-6-methylbenzaldehyde], for which the IC50 in series [2] is 40 nM. Also, in the series with Trypanosma brucei brucei (5×10^5/ml, 37° C., 24 hours), the “Minimum Effective Concentration” value was 25 µM. In addition, in the series on Trypanosma brucei brucei (setting [4]), the minimal effective concentration turned out to be 25 µM.

As to `CCCCCCCCCC(O)c1c(O)cc(C)c(C=O)c1O` (centres unmarked) [195-10, 2,4-Dihydroxy-3-(1-hydroxydecyl)-6-methylbenzaldehyde], the IC50 in series [2] turned out to be 35 nM. For the same compound, in the series with Trypanosma brucei brucei (5×10^5/ml, 37° C., 24 hours), the “Minimum Effective Concentration” value is 25 µM. For the same compound, the minimal effective concentration in the series with Trypanosma brucei brucei (setting [4]) was determined as 25 µM.

Take `CCCCCCCCCC/C=C/c1c(O)c(Cl)cc(C=O)c1O` [203-12, 5-Chloro-3-(1-dodecenyl)-2,4-dihydroxybenzaldehyde]: the melting point lay in the range of 84 to 85 °C. Also, in series [2], the 50% inhibitory concentration (IC50) came to 0.5 nM.

The compound `C/C(=C\Cc1c(O)c(Cl)c(C)c(/C=N/O)c1O)CC/C=C(\C)[C@@H]1CC(=O)C(C)(C)O1` [compound 213, 5-[(E,E)-7-(3-Chloro-2,6-dihydroxy-5-hydroxyiminomethyl-4-methylphenyl)-1,5-dimethyl-1,5-heptadienyl]-4,5-dihydro-2,2-dimethyl-3(2H)-furanone] came in with a melting point of 102 to 103 °C. Also, the IC50 in series [2] worked out at 28 nM.

For `CCCCCCCCC(O)c1c(O)c(Cl)c(C)c(C=O)c1O` (centres unmarked) [196-9, 5-Chloro-2,4-dihydroxy-3-(1-hydroxynonyl)-6-methylbenzaldehyde], the IC50 in series [2] came to 0.5 nM. Further, the “Minimum Effective Concentration” value with Trypanosma brucei brucei (5×10^5/ml, 37° C., 24 hours) amounted to 0.8 µM. Further, in the series with Trypanosma brucei brucei (setting [4]), the minimal effective concentration amounted to 50 µM.

Turning to `Cc1c(Cl)c(O)c(CCC(C)CCCC(C)C)c(O)c1C=O` (racemic) [dl-218, 3-Chloro-5-(3,7-dimethyloctyl)-4,6-dihydroxy-2-methylbenzaldehyde], the melting point fell in the range of 66 to 67 °C. The IC50 in series [2] came out at 0.4 nM.

For the compound `CCCC[C@H]1C(=O)O[C@H](C)[C@H](NC(=O)c2cccc(NC=O)c2O)C(=O)O[C@@H](C)[C@@H]1OC(=O)CC(C)C` [antimycin A3], the “absolute amounts of 50% inhibition” value in series [1] is 48,600 pmol/mg protein.

Take `CCCCCCCCCCCC(O)c1c(O)ccc(C=O)c1O` (centres unmarked) [201-12, 2,4-Dihydroxy-3-(1-hydroxydodecyl)benzaldehyde]: in series [2], the IC50 worked out at 300 nM.

With `CCCCCCCCCCCC(O)c1c(O)c(Cl)cc(C=O)c1O` (centres unmarked) [202-12, 5-Chloro-2,4-dihydroxy-3-(1-hydroxydodecyl)benzaldehyde], the melting point lay within 78 to 79 °C. The IC50 in series [2] was determined as 1.5 nM.

On to `CO/C(=C/C(N)=O)[C@H](C)[C@H](/C=C/c1csc(-c2csc([C@@H](C)/C=C/C=C/C(C)C)n2)n1)OC` [myxothiazol], for which the “absolute amounts of 50% inhibition” value in series [1] is reported as 21,500 pmol/mg protein.
